Experimental data reported in US8536354B2, “Steroidal ligands and their use in gene switch modulation” (Intrexon Corporation, priority 2008, dated 2013).
Like-named read-outs stand apart in the source and are kept apart here.

Tests used:
[1] = target: T1, wild-type CfEcR (GAL4-CfEcR-DEF with VP16-RXR-USP chimera) (Choristoneura fumiferana, UniProt O77255); assay: Two-hybrid gene switch assay, luciferase reporter, wild-type CfEcR, mouse NIH3T3 cells
T1 sequence (O77255 219-541): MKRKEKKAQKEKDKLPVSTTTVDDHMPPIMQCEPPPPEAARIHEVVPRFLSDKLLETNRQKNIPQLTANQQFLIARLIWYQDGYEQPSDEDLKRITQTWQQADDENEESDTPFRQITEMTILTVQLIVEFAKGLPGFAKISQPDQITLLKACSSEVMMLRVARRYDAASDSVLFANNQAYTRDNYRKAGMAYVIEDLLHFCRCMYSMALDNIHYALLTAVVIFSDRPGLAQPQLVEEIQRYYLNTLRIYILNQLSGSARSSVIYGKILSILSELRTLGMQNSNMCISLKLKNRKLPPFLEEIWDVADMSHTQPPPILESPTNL
T1 sequence (P28702 1-533 partner): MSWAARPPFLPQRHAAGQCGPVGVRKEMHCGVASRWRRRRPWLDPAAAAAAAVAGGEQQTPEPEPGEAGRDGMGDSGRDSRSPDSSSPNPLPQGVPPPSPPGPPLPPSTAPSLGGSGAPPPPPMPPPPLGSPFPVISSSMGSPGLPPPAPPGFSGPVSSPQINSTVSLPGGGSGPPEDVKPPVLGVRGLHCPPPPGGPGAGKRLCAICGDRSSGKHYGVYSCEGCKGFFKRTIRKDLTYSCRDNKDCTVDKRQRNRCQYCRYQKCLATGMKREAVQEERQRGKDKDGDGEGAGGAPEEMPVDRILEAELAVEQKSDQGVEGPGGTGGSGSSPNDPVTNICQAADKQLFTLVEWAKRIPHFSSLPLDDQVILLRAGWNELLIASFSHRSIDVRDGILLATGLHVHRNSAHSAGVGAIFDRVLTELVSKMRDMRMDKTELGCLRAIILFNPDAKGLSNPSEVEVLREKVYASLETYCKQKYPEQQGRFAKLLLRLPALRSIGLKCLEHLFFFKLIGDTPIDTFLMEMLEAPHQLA

[2] = target: BmEcR (GAL4-EcR DEF with VP16-RXR-USP chimera) (Bombyx mori, UniProt P49881); assay: Two-hybrid gene switch assay, luciferase reporter, BmEcR, mouse NIH3T3 cells; assay type: cell-based
[3] = target: T2, AmaEcR (GAL4-EcR DEF with VP16-RXR-USP chimera) (Amblyomma americanum, UniProt O44338); assay: Two-hybrid gene switch assay, luciferase reporter, AmaEcR, mouse NIH3T3 cells
T2 sequence (O44338 255-570): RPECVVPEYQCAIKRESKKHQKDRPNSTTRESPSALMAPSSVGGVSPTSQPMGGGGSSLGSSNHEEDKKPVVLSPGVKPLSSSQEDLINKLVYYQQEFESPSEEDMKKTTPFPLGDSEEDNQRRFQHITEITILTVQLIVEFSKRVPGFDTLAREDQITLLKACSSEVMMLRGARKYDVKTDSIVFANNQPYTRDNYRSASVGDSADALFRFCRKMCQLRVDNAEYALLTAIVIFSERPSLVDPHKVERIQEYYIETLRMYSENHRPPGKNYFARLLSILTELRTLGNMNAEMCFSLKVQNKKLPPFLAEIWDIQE
T2 sequence (P28702 1-533 partner): T1 sequence (P28702 1-533 partner)

[4] = target: T3, MsEcR (GAL4-EcR DEF with VP16-RXR-USP chimera) (Manduca sexta, UniProt P49883); assay: Two-hybrid gene switch assay, luciferase reporter, MsEcR, mouse NIH3T3 cells
T3 sequence (P49883 1-556): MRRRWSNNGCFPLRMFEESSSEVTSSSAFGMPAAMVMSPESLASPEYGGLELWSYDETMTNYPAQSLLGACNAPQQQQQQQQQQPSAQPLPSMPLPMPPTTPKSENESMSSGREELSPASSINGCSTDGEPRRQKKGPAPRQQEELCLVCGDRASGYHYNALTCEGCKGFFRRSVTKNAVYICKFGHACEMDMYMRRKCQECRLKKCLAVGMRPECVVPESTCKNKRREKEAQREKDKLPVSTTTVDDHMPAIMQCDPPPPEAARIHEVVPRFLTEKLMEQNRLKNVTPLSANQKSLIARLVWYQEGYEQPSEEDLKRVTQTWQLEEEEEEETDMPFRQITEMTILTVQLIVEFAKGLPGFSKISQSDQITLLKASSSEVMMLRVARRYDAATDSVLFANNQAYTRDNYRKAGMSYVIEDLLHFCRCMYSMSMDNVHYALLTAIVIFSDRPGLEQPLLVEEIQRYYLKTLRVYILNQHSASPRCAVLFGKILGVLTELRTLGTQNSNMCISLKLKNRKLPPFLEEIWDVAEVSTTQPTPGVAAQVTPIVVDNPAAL
T3 sequence (P28702 1-533 partner): T1 sequence (P28702 1-533 partner)

[5] = target: wild-type Drosophila melanogaster EcR (DmEcR; GAL4-EcR DEF with VP16-RXR-USP chimera) (Drosophila melanogaster, UniProt P34021); assay: Two-hybrid gene switch assay, luciferase reporter, wild-type DmEcR, mouse NIH3T3 cells; assay type: cell-based
[6] = target: T4, BaEcR (GAL4-EcR DEF with VP16-RXR-USP chimera) (Bemisia tabaci, UniProt A0A6M3RDR8); assay: Two-hybrid gene switch assay, luciferase reporter, BaEcR, mouse NIH3T3 cells
T4 sequence (A0A6M3RDR8 115-530): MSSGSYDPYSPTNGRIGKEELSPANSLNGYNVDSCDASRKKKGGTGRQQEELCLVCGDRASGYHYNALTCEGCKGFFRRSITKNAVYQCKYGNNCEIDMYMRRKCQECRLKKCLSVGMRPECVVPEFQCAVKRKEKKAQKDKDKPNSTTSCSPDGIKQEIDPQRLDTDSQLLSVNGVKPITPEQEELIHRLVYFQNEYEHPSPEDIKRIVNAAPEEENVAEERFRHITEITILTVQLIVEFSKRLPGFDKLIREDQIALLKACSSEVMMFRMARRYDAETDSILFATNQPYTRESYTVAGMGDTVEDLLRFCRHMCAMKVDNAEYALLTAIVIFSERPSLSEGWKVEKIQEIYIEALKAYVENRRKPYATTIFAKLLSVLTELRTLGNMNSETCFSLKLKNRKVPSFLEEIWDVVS
T4 sequence (P28702 1-533 partner): T1 sequence (P28702 1-533 partner)

[7] = test system: NcEcR (GAL4-EcR DEF with VP16-RXR partner); assay: Two-hybrid gene switch assay, luciferase reporter, NcEcR, mouse NIH3T3 cells
[8] = EC50, FIG. 13A/13B, BmEcR, GAL4-EcR(DEF) with VP16-RXR-USP chimera
[9] = EC50, FIG. 14A/14B, GAL4-EcR(DEF) with VP16-RXR-USP chimera
[10] = EC50, FIG. 16, GAL4-EcR (DEF) / VP16-RXR-USP chimera
[11] = EC50, FIG. 13A/13B, GAL4-EcR(DEF) with VP16-RXR-USP chimera

Sequence of BmEcR (GAL4-EcR DEF with VP16-RXR-USP chimera) (P49881 other isoform, or with tags, fused parts or gaps, change not shown): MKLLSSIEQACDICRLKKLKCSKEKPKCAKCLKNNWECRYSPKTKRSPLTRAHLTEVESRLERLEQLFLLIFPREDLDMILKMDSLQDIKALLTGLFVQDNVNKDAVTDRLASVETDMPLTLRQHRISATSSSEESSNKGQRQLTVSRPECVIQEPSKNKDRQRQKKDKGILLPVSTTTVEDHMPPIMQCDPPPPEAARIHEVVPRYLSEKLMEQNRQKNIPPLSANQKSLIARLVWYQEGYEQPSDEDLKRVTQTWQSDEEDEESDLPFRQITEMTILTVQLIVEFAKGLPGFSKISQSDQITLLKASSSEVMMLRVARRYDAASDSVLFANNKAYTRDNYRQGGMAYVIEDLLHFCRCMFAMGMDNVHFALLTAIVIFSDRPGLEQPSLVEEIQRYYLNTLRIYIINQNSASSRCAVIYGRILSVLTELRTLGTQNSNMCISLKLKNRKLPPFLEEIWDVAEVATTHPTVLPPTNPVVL
Sequence of wild-type Drosophila melanogaster EcR (DmEcR; GAL4-EcR DEF with VP16-RXR-USP chimera) (P34021 with tags, fused parts or gaps limits assumed): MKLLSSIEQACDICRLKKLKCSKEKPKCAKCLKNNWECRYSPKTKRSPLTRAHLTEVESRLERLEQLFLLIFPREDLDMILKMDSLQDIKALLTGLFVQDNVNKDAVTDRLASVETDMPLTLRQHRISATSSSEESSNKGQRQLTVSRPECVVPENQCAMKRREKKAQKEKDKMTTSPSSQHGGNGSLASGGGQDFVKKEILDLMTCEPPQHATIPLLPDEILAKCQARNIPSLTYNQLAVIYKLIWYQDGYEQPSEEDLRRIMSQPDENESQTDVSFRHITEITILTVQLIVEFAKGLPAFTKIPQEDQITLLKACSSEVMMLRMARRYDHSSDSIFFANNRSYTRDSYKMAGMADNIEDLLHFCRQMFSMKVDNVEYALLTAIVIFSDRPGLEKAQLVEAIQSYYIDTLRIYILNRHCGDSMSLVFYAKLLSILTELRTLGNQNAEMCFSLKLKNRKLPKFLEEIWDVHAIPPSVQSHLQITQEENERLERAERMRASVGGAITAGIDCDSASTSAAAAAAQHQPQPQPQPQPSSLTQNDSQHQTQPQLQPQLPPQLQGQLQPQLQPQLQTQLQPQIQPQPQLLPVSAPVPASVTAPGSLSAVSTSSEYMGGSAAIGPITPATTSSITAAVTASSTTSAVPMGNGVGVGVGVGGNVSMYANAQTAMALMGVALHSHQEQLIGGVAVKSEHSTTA

SMILES | EC50 [1] | EC50 ([1]; FIG. 15, CfEcR, GAL4-EcR (DEF) / VP16-RXR-USP chimera) | EC50 [2, 8] | EC50 ([2]; EC50, FIG. 15, BmEcR, GAL4-EcR (DEF) / VP16-RXR-USP chimera) | EC50 [3, 9] | EC50 [3, 10] | EC50 [4, 11] | EC50 ([4]; EC50, FIG. 15, GAL4-EcR (DEF) / VP16-RXR-USP chimera) | EC50 [5, 9] | EC50 [5, 10] | EC50 [6, 9] | EC50 [6, 10] | EC50 ([7]; FIG. 14A/14B, GAL4-EcR(DEF)) | EC50 ([7]; FIG. 16, GAL4-EcR (DEF)) | EC50 [2] | EC50 ([2]; read-out: EC50)
C[C@H]([C@H](O)CCC(C)(C)O)[C@H]1CC[C@@]2(O)C3=CC(=O)[C@@H]4C[C@@H](O)[C@@H](O)C[C@]4(C)[C@H]3CC[C@]12C [ecdysone] | > 33 µM | > 33 µM | > 33 µM | > 33 µM | ~7 µM | > 33 µM | > 33 µM | > 33 µM | > 33 µM | > 33 µM | > 33 µM | > 33 µM | 3.27 µM | 2.52 µM |  | 
CC(C)CC[C@@H](O)[C@](C)(O)[C@H]1CC[C@@]2(O)C3=CC(=O)[C@@H]4C[C@@H](O)[C@@H](O)C[C@]4(C)[C@H]3[C@H](O)C[C@]12C [ajugasterone C] | ~20 µM |  | ~10 µM |  | ~0.2 µM |  | ~7 µM |  | ~2 µM |  | 2.06 µM |  | 0.08 µM |  |  | 
CC(=O)OCC(=O)O[C@H](CCC(C)(C)O)[C@](C)(O)[C@H]1CC[C@@]2(O)C3=CC(=O)[C@@H]4C[C@@H](O)[C@@H](O)C[C@]4(C)[C@H]3CC[C@]12C [20-hydroxyecdysone 22-acetoxyacetate] | > 33 µM |  |  |  | ~3.3 µM |  | ~10 µM |  | ~20 µM |  | ~12 µM |  | 0.755 µM |  | > 33 µM | 
CC(C(O)CCC(C)(C)O)C1CCC2(O)C3=CC(=O)C4CC(O)CCC4(C)C3CCC12C (stereo not drawn) [Compound 2-deoxyecdysone] | > 33 µM |  |  |  | ~1 µM |  | > 33 µM |  | > 33 µM |  | > 33 µM |  | ~6 µM |  |  | > 33 µM
C[C@@H](CO)CC[C@@H](O)[C@](C)(O)[C@H]1CC[C@@]2(O)C3=CC(=O)[C@@H]4C[C@@H](O)[C@@H](O)C[C@]4(C)[C@H]3CC[C@]12C [(25R)-inokosterone] | > 33 µM |  |  |  | ~3.3 µM |  | ~10 µM |  | 9.46 µM |  | ~10 µM |  | 0.867 µM |  |  | > 33 µM
CC(C)(O)CC[C@@H](O)[C@](C)(O)[C@H]1CC[C@@]2(O)C3=C[C@H](O)[C@@H]4C[C@@H](O)[C@@H](O)C[C@]4(C)[C@H]3CC[C@]12C [Compound 6a-hydroxy-20-hydroxyecdysone] | > 33 µM |  |  |  | 10 µM |  | > 33 µM |  | > 33 µM |  | > 33 µM |  | ~10 µM |  | > 33 µM | 
CC(C)(O)CC[C@@H](O)[C@](C)(O)[C@H]1CC[C@@]2(O)C3=CC(=O)[C@@H]4C[C@@H](O)[C@@H](O)[C@@H](O)[C@]4(C)[C@H]3CC[C@]12C [integristerone A] | > 33 µM |  |  |  | ~10 µM |  | ~12 µM |  | > 33 µM |  | ~20 µM |  | ~2 µM |  |  | > 33 µM
CC(C)=CC[C@@H](O)[C@](C)(O)[C@H]1CC[C@@]2(O)C3=CC(=O)[C@@H]4C[C@@H](O)[C@@H](O)C[C@]4(C)[C@H]3CC[C@]12C [stachysterone C] | ~10 µM |  | ~5 µM |  | ~0.1 µM |  | 0.672 µM |  | 0.385 µM |  | 0.658 µM |  | 0.013 µM |  |  | 
C[C@H](CO)CC[C@@H](O)[C@](C)(O)[C@H]1CC[C@@]2(O)C3=CC(=O)[C@@H]4C[C@@H](O)[C@@H](O)C[C@]4(C)[C@H]3CC[C@]12C [(25S)-inokosterone] | > 33 µM |  |  |  | ~3.3 µM |  | ~10 µM |  | ~20 µM |  | ~10 µM |  | ~1.5 µM |  |  | > 33 µM
CC(CC(O)C(C)(O)C1CCC2(O)C3=CC(=O)C4CC(O)C(O)CC4(C)C3CCC12C)C(C)(C)O (stereo not drawn) [makisterone A] | > 33 µM |  |  |  | 1.4 µM |  | ~10 µM |  | ~20 µM |  | ~15 µM |  | 0.117 µM |  |  | > 33 µM
CCCCCC(=O)OC1CC2(C)C(C(C)(O)C(O)CCC(C)(C)O)CCC2(O)C2=CC(=O)C3CC(O)C(O)CC3(C)C21 (stereo not drawn) [turkesterone-11 a -hexanoate] | > 33 µM |  | > 33 µM |  | ~10 µM |  | > 33 µM |  | > 33 µM |  | > 33 µM |  | ~7 µM |  |  | 
